One compound from patent US9801845B2 (priority 2015, dated 2017) can be followed below.

The subject of experiment [1] is C. perfringens. It counts as cell-based, Clostridium perfringens. The following applies: TSA-thioglycolate broth, 250 μL of 2% w/v, overnight, anaerobic.
Experiment [2] relates to C. perfringens. It counts as cell-based, Clostridium perfringens. As to conditions: FIG. 2.

Positions of bridges follow the written chain, without caps; N, C: chain ends. Non-standard residues stand in square brackets, D forms with d. Residues, ends and D or L forms follow the SMILES beside them. *: point of attachment. Ileψ(thiazoline)Cys = CC[C@H](C)[C@H](N)C1=N[C@H](C(=O)*)CS1; dOrn = NCCC[C@@H](N)C(=O)O

As to `CC[C@H](C)[C@H](N)C1=N[C@H](C(=O)N[C@@H](CC(C)C)C(=O)N[C@H](CCC(=O)O)C(=O)N[C@H](C(=O)N[C@H]2CCCCNC(=O)[C@H](CC(N)=O)NC(=O)[C@@H](CC(=O)O)NC(=O)[C@H](Cc3cnc[nH]3)NC(=O)[C@@H](Cc3ccccc3)NC(=O)[C@H]([C@@H](C)CC)NC(=O)[C@@H](CCCN)NC2=O)[C@@H](C)CC)CS1` [Bacitracin] ({Ileψ(thiazoline)Cys}-L[dE]IK[dOrn]I[dF]H[dD]N; lactam 4-C), in the experiment with C. perfringens [1], the “inhibition of C. perfringens growth (counts)” value is “complete inhibition”. Also, the “inhibition of the growth of C. perfringens, crop assay” value with C. perfringens [2] (crop supernatant pH 5.34, 250 μL of 2% w/v, 24 h) was “complete inhibition”. The “reduction of C. perfringens, ileal assay (in words)” value in the experiment on C. perfringens [2] (ileal supernatant pH 7.01, 24 h) is on record as “almost complete reduction”. The “effectiveness against C. perfringens, proventricular assay” value with C. perfringens [2] (proventricular supernatant pH 2.54, 250 μL of 2% w/v, 24 h) is given as “not effective”.
